In patent publication US20030119895A1, “Methods using a combination of a 3-heteroaryl-2-indolinone and a cyclooxygenase-2 inhibitor for the treatment of neoplasia” (Pharmacia Corporation, priority 1998, published 2003):
Values joined by “and” are separate entries in the source; they are usually repeats but may differ in a detail not shown here. Equal values may be shown once.

How the values were obtained:
[1] = system: EpH4-VEGF; assay: Xenograft Assay 2: FLK-1/Xenograft Model, subcutaneous xenograft (In Vivo Data, EpH4-VEGF); parameters: species or system mice
Method: Assay 2: FLK-1/Xenograft Model
The ability of the compounds of the present invention to inhibit ovarian, melanoma, prostate, lung and mammary tumor cell lines established as SC xenografts was examined. These studies were conducted using doses ranging from 1 to 75 mg/kg/day.
Materials And Methods. The tumor cells were implanted subcutaneously into the indicated strains of mice. Treatment was initiated on day 1 post implantation unless otherwise indicated (e.g. treatment of the SCID mouse related to the A375 melanoma cell line began on Day 9). Eight (8) to sixteen (16) mice comprised each test group.
Animals. Female athymic mice (BALB/c, nu/nu), BALB/c mice, Wistar rats and Fisher 344 rats were obtained from Simonsen Laboratories (Gilroy, Calif.). Female A/I mice were obtained from Jackson Laboratory (Bar Harbor, Me.). DA rats were obtained from B&K Universal, Inc. (Fremont, Calif.). Athymic R/Nu rats, DBA/2N mice, and BALB/c mice were obtained from Harlan Sprague Dawley (Indianapolis, Ind.). Female C57BU6 mice were obtained from Taconic (Germantown, N.Y.). All animals were maintained under clean-room conditions in Micro-isolator cages with Alpha-dri bedding. They received sterile rodent chow and water ad libitum.
All procedures were conducted in accordance with the NIH Guide for the Care and Use Of Laboratory Animals.
Subcutaneous Xenograft Model. Cell lines were grown in appropriate medium as described. Cells were harvested at or near confluency with 0.05% Trypsin-EDTA and pelleted at 450×g for 10 min. Pellets were resuspended in sterile PBS or media (without FBS) to a suitable concentration indicated in the Figure legends and the cells were implanted into the hindflank of mice. Tumor growth-was measured over 3 to 6 weeks using venier calipers and tumor volumes were calculated as a product of length x width x height unless otherwise indicated. P values were calculated using the Students' t-test.
Different concentrations of a compound in 50-100 μl excipient (dimethylsulfoxide, PBTE, PBTE6C:D5W, or PBTE:D5W) were delivered by IP injection.
Results for various compounds obtained from the above-described in vivo assays are set forth at Table 5, below: […]

[2] = system: HUV-EC-C cells (human umbilical vein endothelial cells); assay: HUV-EC-C Assay, VEGF-stimulated [3H] thymidine incorporation; type: cell-based; settings: Homo sapiens, HUVEC, Mitogenesis in Endothelial Cells
Method: Repeat the wash two more times with D-PBS, resuspend the cells in about 1 ml assay medium/15 cm^2 of tissue culture flask.
Add cells to 96-well flat-bottom plates at 100 μl/well or 0.8-1.0×10^4 cells/well; incubate about 24 h at 37° C., 5% CO2.
Use the same assay medium as mentioned in day 0, step 2 above. Titrations are made by adding 90 μl/well of drug at 200 μM (4× the final well concentration) to the top well of a particular plate column. Since the stock drug concentration is usually 20 mM in DMSO, the 200 μM drug concentration contains 2% DMSO. Therefore, diluent made up to 2% DMSO in assay medium (F12K+0.5% fetal bovine serum) is used as diluent for the drug titrations in order to dilute the drug but keep the DMSO concentration constant. Add this diluent to the remaining wells in the column at 60 μl/well. Take 60 μl from the 120 μl of 200 μM drug dilution in the top well of the column and mix with the 60 μl in the second well of the column. Take 60 μl from this well and mix with the 60 μl in the third well of the column, and so on until two-fold titrations are completed. When the next-to-the-last well is mixed, take 60 μl of the 120 μl in this well and discard it. Leave the last well with 60 μl of DMSO/media diluent as a non-drug-containing control. Make 9 columns of titrated drug, enough for triplicate wells each for 1) VEGF (obtained from Pepro Tech Inc., catalogue no. 100-200, 2) endothelial cell growth factor (ECGF) (also known as acidic fibroblast growth factor, or aFGF) (obtained from Boehringer Mannheim Biochemica, catalogue no. […] ECGF comes as a preparation with sodium heparin.
Transfer 50 μl/well of the drug dilutions to the 96-well assay plates containing the 0.8-1.0×10^4 cells/100 μl/well of the HUV-EC-C cells from day 0 and 20 incubate ~2 h at 37° C., 5% CO2.
In triplicate, add 50 μl/well of 80 ng/ml VEGF, 20 ng/ml ECGF, or media control to each drug condition. As with the drugs, the growth factor concentrations are 4× the desired final concentration. Use the assay media from day 0 step 2 to make the concentrations of growth factors.
RPMI was obtained from Gibco BRL, catalogue no.
Freeze plates overnight at −20° C.

[3] = system: 3T3/E/H+TGF-a(T) (NIH 3T3 cells expressing EGFR/HER2 chimera and TGF-a); assay: SRB Assay 1: 3T3/E/H+TGF-a(T) Cell Growth SRB Assay; type: cell-based; settings: Mus musculus, NIH3T3, SRB Readout
Method: Sulforhodamine B (SRB) Growth Assays
The assays are carried out as follows:
0.4% SRB in 1% acetic acid
compound in DMSO (100 mM or less stock solution)
Cell Line and Growth Medium:
Trypsinize cells as usual. Transfer 100 μl of cell suspension to 10 ml of isotone. Count cells with the Coulter Counter.
Gently shake plates to allow for uniform attachment of the cells.
In 96 well-round bottom plate, add 125 μl of growth medium to columns 3-11.
At this dilution, the concentration of DMSO is 0.4% for a 2× solution or 0.2% for 1× solution on the cells.
Transfer the 2× starting compound solution to quadruplicate wells in column 12 of the 96-well round bottom plate. […] Transfer 100 μl of compound dilutions onto 100 μl medium on cells in corresponding wells of 96-well flat bottom plate. Total volume per well should be 200 μl.
For vehicle control, prepare a 2× solution of DMSO at 0.4% DMSO in growth medium. […]
Read plates on Dynatech ELISA Plate Reader at 570 nm with reference at 630 nm.

[4] = system: HUV-EC-C cells (human umbilical vein endothelial cells); assay: HUV-EC-C Assay, a-FGF (ECGF)-stimulated [3H] thymidine incorporation; type: cell-based; settings: Homo sapiens, HUVEC, Mitogenesis in Endothelial Cells
[5] = molecular target: T1, FLK-1 receptor (Mus musculus, UniProt P35918); assay: FLK-1 ELISA (kinase activity of the FLK-1 receptor in FLK-1/NIH3T3 cells); type: cell-based; settings: ELISA Assay Results, VEGF stimulation
T1 construct: expressed in transfected cells; host or cells: NIH3T3 C7#3 (FLK-1/NIH3T3)
Method: An ELISA assay was conducted to measure the kinase activity of the FLK-1 receptor and more specifically, the inhibition or activation of protein tyrosine kinase activity on the FLK-1 receptor. Specifically, the following assay was conducted to measure kinase activity of the FLK-1 receptor in FLK-1/NIH3T3 cells.
The following reagents and supplies were used:
PBS (Gibco Catalog No. 450-1300EB);
Ethanolamine stock (10% ethanolamine (pH 7.0), stored at 4° C.);
HNTG buffer (20 mM HEPES buffer (pH 7.5),150 mM NaCl, 0.2% Triton X-100, and 10% glycerol);
EDTA (0.5M (pH 7.0) as a 100× stock);
Sodium ortho vanadate (0.5M as a 100× stock);
Sodium pyro phosphate (0.2M as a 100× stock);
NIH3T3 C7#3 Cells (FLK-1 expressing cells);
VEGF, PeproTech, Inc. (catalog no. 100-20)(kept as 1 μg/100 til stock in Milli-Q dH2O and stored at −20° C. Affinity purified anti-FLK-1 antiserum, Enzymology Lab, Sugen, Inc.;
H2 02 (30% solution) (Fisher catalog no. H325);
Protocol. The following protocol was used for conducting the assay:
Coat Corning 96-well elisa plates with 1.0 μg per well Cappel Anti-rabbit IgG antibody in 0.1M Na2 CO3 pH 9.6. Bring final volume to 150 μl per well. Coat plates overnight at 4° C. Plates can be kept up to two weeks when stored at 4° C.
Grow cells in Growth media(DMEM, supplemental with 2.0 mM L-Glutamine, 10% FBS) in suitable culture dishes until confluent at 37° C., 5% CO2. […]

[6] = system: 3T3/PDGF-βR/PDGF-BB(T) (NIH 3T3 cells expressing PDGFβ-receptor and PDGF-BB); assay: SRB Assay 3: 3T3/PDGF-βR/PDGF-BB(T) Cell Growth SRB Assay; type: cell-based; settings: Mus musculus, NIH3T3, SRB Readout, read-out: 3T3/PDGFR + PDGF (T) IC50
Method: Assay 3: 3T3/PDGF-βR/PDGF-BB(T) Cell Growth SRB Assay
Cell line and growth medium:
3T3/PDGF-βR/PDGF-BB(T) (NIH 3T3 clone 7 cells expressing PDGFβ-receptor and PDGF-BB, from tumors resected from athymic mice) 2% calf serum/DMEM+2 mM glutamine
This part of assay is carried out in a laminar flow hood.
1. Trypsinize cells as usual. Transfer 200 μl of cell suspension to 10 ml of isotone. Count cells on the Coulter Counter.
2. Dilute cells in growth medium to 60,000 cells/ml. Transfer 100 μl of cells to each well in a 96-well flat bottom plate to give 6000 cells/well.
3. Allow half of plate (4 rows) for each compound and quadruplicate wells for each compound concentration, a set of 4 wells for medium control and 4 wells for DMSO control.
4. Gently shake plates to allow for uniform attachment of the cells to the plate.
5. Incubate the plates at 37° C. in a 10% CO2 incubator.
Day 1: Addition of Compound: same as for Assay 1.
Day 5: Development of Assay: same as for Assay 1.
3T3/E/H+TGF-α(T): NIH 3T3 cells expressing EGFR/HER2 chimera and TGF-α, tumor-derived 3T3/EGFR+TGF-α(T): NIH 3T3 cells expressing EGFR and TGF-α, tumor-derived 3T3/PDGFR+PDGF(T): NIH 3T3 cells expressing PDGF-βR and PDGF-ββ, tumor-derived SMC: human smooth muscle cells from Clonetics

[7] = molecular target: T2, HER2 kinase (Homo sapiens, UniProt P04626); assay: HER-2 ELISA Assay 1: EGF Receptor-HER2 Chimeric Receptor Assay In Whole Cells; type: cell-based; settings: ELISA Assay Results
T2 construct: fused on or other part: The EGFR extracellular domain serves for EGF stimulation and for capture by mAb 05-101; The HER2 part carries the kinase domain; P00533 (Epidermal growth factor receptor)
T2 sequence (P04626 720-987 limits assumed): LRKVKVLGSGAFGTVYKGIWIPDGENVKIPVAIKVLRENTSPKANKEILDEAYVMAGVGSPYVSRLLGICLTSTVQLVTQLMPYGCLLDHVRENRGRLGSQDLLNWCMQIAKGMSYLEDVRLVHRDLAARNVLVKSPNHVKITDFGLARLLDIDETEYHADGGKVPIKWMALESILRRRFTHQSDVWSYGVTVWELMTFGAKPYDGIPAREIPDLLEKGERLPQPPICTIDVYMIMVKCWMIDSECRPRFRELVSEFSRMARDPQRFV
Method: Assay 1 EGF Receptor-HER2 Chimeric Receptor Assay In Whole Cells. HER2 kinase activity in hole EGFR-NIH3T3 cells was measured as described below:
Materials and Reagents. The following materials and reagents were used to conduct the assay:
Anti-phosphotyrosine antibody (anti-Ptyr) (polyclonal)(see, Fendley, et al., supra).
Detection antibody: Goat anti-rabbit IgG horse radish peroxidase conjugate, TAGO, Inc., Burlingame, Calif.
Procedure. The following protocol was used:
Coated plates are good for up to 10 days when stored at 4° C.
On day of use, remove coating buffer and replace with 100 μl blocking buffer (5% Carnation Instant Non-Fat Dry Milk in PBS). Incubate the plate, shaking, at room temperature (about 23° C. to 25° C.) for 30 minutes. Just prior to use, remove blocking buffer and wash plate 4 times with TBST buffer.
An NIH3T3 cell line overexpressing a chimeric receptor containing the EGFR extracellular domain and extracellular HER2 kinase domain can be used for this assay.
Choose dishes having 80-90% confluence for the experiment. Trypsinize cells and stop reaction by adding 10% fetal bovine serum. Suspend cells in DMEM medium (10% CS DMEM medium) and centrifuge once at 1500 rpm, at room temperature for 5 minutes.
Resuspend cells in seeding medium (DMEM, 0.5% bovine serum), and count the cells using trypan blue. Viability above 90% is acceptable. Seed cells in DMEM medium (0.5% bovine serum) at a density of 10,000 cells per well, 100 μL per well, in a 96 well microtiter plate. Incubate seeded cells in 5% CO2 at 37° C. for about 40 hours.
Check seeded cells for contamination using an inverted microscope. Dilute drug stock (10 mg/ml in DMSO) 1:10 in DMEM medium, then transfer 51 to a TBST well for a final drug dilution of 1:200 and a final DMSO concentration of 1%. Control wells receive DMSO alone. Incubate in 5% CO2 at 37° C. for two hours.
Prepare EGF ligand: dilute stock EGF in DMEM so that upon transfer of 10 μl dilute EGF (1:12 dilution), 100 nM final concentration is attained.
Prepare fresh HNTG* sufficient for 100 μl per well; and place on ice.
After 120 minutes incubation with drug, add prepared SGF ligand to cells, 10 μl per well, to a final concentration of 100 nM. Control wells receive DMEM alone. Incubate, shaking, at room temperature, for 5 minutes.
Remove drug, EGF, and DMEM. Wash cells twice with PBS. Transfer HNTG* to cells, 100 μl per well. Place on ice for 5 minutes. Meanwhile, remove blocking buffer from other ELISA plate and wash with TBST as described above.
With a pipette tip securely fitted to a micropipettor, scrape cells from plate and homogenize cell material by repeatedly aspirating and dispensing the HNTG* lysis buffer. Transfer lysate to a coated, blocked, and washed ELISA plate. Incubate shaking at room temperature for one hour.
Remove lysate and wash 4 times with TBST. Transfer freshly diluted anti-Ptyr antibody to ELISA plate at 100 μl per well. Incubate shaking at room temperature for 30 minutes in the presence of the anti-Ptyr antiserum (1:3000 dilution in TBST).
Remove the anti-Ptyr antibody and wash 4 times with TBST. Transfer the freshly diluted TAGO anti-rabbit IgG antibody to the ELISA plate at 100 μl per well., Incubate shaking at room temperature for 30 minutes (anti-rabbit IgG antibody: 1:3000 dilution in TBST).
Remove TAGO detection antibody and wash 4 times with TBST. Transfer freshly prepared ABTS/H2O2 solution to ELISA plate, 100 μl per well. Incubate shaking at room temperature for 20 minutes. (ABTS/H2O2 solution: 1.0 μl 30% H2O2 in 10 ml ABTS stock).
Stop reaction by adding 50 μl 5N H2 SO4 (optional), and determine O.D. at 410 nm.
The maximal phosphotyrosine signal is determined by subtracting the value of the negative controls from the positive controls. The percent inhibition of phosphotyrosine content for extract-containing wells is then calculated, after subtraction of the negative controls.

T1 sequence (P35918 20-1345): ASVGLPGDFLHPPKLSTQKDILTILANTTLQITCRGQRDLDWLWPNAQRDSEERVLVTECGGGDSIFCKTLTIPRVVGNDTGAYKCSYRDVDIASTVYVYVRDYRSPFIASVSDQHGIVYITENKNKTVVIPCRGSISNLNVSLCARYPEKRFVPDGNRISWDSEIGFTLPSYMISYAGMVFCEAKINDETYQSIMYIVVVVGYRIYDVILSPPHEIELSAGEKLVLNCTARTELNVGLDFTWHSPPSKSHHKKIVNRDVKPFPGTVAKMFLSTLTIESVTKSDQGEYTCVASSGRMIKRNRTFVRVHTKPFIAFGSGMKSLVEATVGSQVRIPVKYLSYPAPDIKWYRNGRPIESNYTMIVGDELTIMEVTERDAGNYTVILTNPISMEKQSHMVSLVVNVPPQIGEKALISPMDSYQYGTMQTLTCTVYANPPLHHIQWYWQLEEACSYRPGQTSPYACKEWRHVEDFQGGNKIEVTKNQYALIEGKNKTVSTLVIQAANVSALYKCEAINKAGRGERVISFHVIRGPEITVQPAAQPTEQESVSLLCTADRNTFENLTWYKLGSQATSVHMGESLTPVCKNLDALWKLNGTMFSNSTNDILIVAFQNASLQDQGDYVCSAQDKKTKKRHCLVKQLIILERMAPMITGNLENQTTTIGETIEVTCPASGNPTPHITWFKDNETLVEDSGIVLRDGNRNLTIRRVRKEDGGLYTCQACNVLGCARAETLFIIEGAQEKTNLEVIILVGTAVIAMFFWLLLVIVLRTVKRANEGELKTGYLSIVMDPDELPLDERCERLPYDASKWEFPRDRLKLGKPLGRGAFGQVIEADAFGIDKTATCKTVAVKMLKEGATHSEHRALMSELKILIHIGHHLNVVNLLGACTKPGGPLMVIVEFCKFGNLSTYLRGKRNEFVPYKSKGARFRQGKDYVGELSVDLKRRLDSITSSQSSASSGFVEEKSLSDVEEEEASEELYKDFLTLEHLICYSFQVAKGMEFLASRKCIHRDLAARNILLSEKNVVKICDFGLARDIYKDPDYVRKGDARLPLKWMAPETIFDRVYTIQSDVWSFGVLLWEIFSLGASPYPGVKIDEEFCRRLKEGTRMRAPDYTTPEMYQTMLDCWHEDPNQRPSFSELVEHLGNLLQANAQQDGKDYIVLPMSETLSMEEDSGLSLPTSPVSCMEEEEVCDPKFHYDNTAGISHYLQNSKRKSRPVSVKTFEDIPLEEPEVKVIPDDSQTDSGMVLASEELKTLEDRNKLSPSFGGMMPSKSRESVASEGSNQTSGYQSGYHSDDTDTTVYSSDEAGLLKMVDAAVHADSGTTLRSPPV

Compound | EpH4-VEGF % inhibition @ mg/kg ([1]; @ 50 mg/kg) [% @ 50] | EpH4-VEGF % inhibition @ mg/kg ([1]; @ 75 mg/kg) | IC50 [2] [µM] | IC50 [3] [µM] | IC50 [4] [µM] | IC50 [5] [µM] | IC50 [6] [µM] | IC50 [7] [µM]
CN(C)c1ccc(C=C2C(=O)Nc3ccccc32)cc1 [SU4312, 3-(4-Dimethylaminobenzylidenyl)-2-indolinone] | 63 | 56% @ 75 and 50% @ 75 | 1.1 | 36 | 154 |  |  | 
O=CN1CCN(c2ccc(C=C3C(=O)Nc4ccccc43)cc2)CC1 [SU4984, 3-[4-(4-Formylpiperazin-1-yl)benzylidenyl]-2-indolinone] |  |  | 0.8 |  | 25.8 | 1.6 | 22.2 | 90.2
